According to the supplement of paper PMC10307832:

Tests used:
Assay in all cases: relative viability (nuclei count vs DMSO), 5 days (fraction); higher = more cells survive
[1] = compound: COc1cc2/c(=N/c3ccc(Br)cc3F)nc[nH]c2cc1OCC1CCN(C)CC1 [Vandetanib] + C[C@@H](Oc1cc(-c2cnn(C3CCNCC3)c2)cnc1N)c1c(Cl)ccc(F)c1Cl [Crizotinib] (partner 1 µM)
How it was run: (§1)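 Medians of duplicate plates are given as relative viability. That measure is the nuclei count in treated wells divided by the count in vehicle wells. Counts were taken on 4× images of lung cancer cell lines in 1536-well plates, 5 days after pin-tool dosing the day after seeding with one drug alone or a fixed anchor-drug dose plus five library-drug doses (not always all listed) in √10 steps.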

[2] = compound: C#Cc1cccc(Nc2ncnc3cc(OC)c(OCCCCCCC(=O)NO)cc23)c1 [CUDC-101] + CC(=O)Nc1cccc(-n2c(=O)n(C3CC3)c(=O)c3c(Nc4ccc(I)cc4F)n(C)c(=O)c(C)c32)c1 [Trametinib] (partner 0.02 µM)
How it was run: as §1

[3] = compound: COc1cc(N2CCC(N3CCN(C)CC3)CC2)ccc1Nc1ncc(Cl)c(Nc2ccccc2S(=O)(=O)C(C)C)n1 [NVP-TAE684] + N=C(N)NC(=N)NCCc1ccccc1 [Phenformin] (partner 250 µM)
How it was run: as §1

[4] = compound: C#Cc1cccc(Nc2ncnc3cc(OC)c(OCCCCCCC(=O)NO)cc23)c1 [CUDC-101] + COc1cc2c(Oc3ccc(NC(=O)C4(C(=O)Nc5ccc(F)cc5)CC4)cc3F)ccnc2cc1OCCCN1CCOCC1 [Foretinib] (partner 0.25 µM)
How it was run: as §1

| Cell Line | relative viability ([1]; first compound 0.02 µM) | relative viability ([1]; first compound 0.06325 µM) | relative viability ([1]; first compound 0.2 µM) | relative viability ([1]; first compound 0.6325 µM) | relative viability ([1]; first compound 2 µM) | relative viability ([2]; first compound 0.01 µM) | relative viability ([2]; first compound 0.03162 µM) | relative viability ([2]; first compound 0.1 µM) | relative viability ([2]; first compound 0.3162 µM) | relative viability ([2]; first compound 1 µM) | relative viability ([3]; first compound 0.2 µM) | relative viability ([3]; first compound 0.6325 µM) | relative viability ([3]; first compound 2 µM) | relative viability ([4]; first compound 0.01 µM) | relative viability ([4]; first compound 0.03162 µM) | relative viability ([4]; first compound 0.1 µM) | relative viability ([4]; first compound 0.3162 µM) | relative viability ([4]; first compound 1 µM) |
| --- | --- | --- | --- | --- | --- | --- | --- | --- | --- | --- | --- | --- | --- | --- | --- | --- | --- | --- |
| NCI-H1666 | 1.05 | 0.894 | 0.974 | 0.859 | 0.793 | 0.842 | 0.931 | 0.818 | 0.911 | 0.831 | 0.564 | 0.505 | 0.501 | 0.958 | 0.979 | 1 | 1.06 | 0.932 |
| A-427 | 0.895 | 0.88 | 0.966 | 0.874 | 0.879 | 0.763 | 0.743 | 0.736 | 0.733 | 0.461 | 0.285 | 0.257 | 0.221 | 1.01 | 0.975 | 1.01 | 1.06 | 0.877 |
| NCI-H2170 | 1.22 | 1.26 | 1.11 | 1.18 | 1.1 | 0.951 | 0.967 | 0.883 | 0.939 | 0.843 | 0.404 | 0.364 | 0.358 | 0.978 | 0.973 | 1.05 | 0.995 | 0.903 |
| NCI-H650 | 0.709 | 0.703 | 0.758 | 0.605 | 0.724 | 1.06 | 0.864 | 1.08 | 1.16 | 0.911 | 0.462 | 0.371 | 0.325 | 1.07 | 1.01 | 1.03 | 1.15 | 0.801 |
| NCI-H1437 | 0.842 | 0.894 | 0.895 | 0.958 | 0.954 | 0.54 | 0.528 | 0.498 | 0.468 | 0.263 | 0.283 | 0.31 | 0.224 | 1.38 | 1.08 | 1.27 | 1.38 | 1.27 |
| HCC-366 | 0.617 | 0.569 | 0.608 | 0.609 | 0.518 | 0.391 | 0.378 | 0.312 | 0.366 | 0.209 | 0.66 | 0.629 | 0.588 | 0.939 | 0.93 | 0.95 | 0.847 | 0.882 |
| NCI-H661 | 0.969 |  | 0.99 | 1.06 | 1.03 | 0.566 | 0.529 | 0.609 | 0.542 | 0.374 | 0.275 | 0.272 | 0.242 | 1.06 | 0.861 | 1.05 | 0.98 | 0.536 |
| HCC-78 | 0.318 | 0.352 | 0.328 | 0.331 | 0.257 | 0.781 | 0.711 | 0.864 | 0.667 | 0.545 | 0.658 | 0.442 | 0.422 | 0.549 | 0.56 | 0.543 | 0.494 | 0.268 |
| NCI-H1355 | 1.03 | 0.976 | 0.637 | 0.996 | 1.04 | 0.423 | 0.399 | 0.411 | 0.46 | 0.317 | 0.431 | 0.391 | 0.327 | 1.08 | 1.01 | 1.03 | 1.07 | 0.821 |
| NCI-H1993 | 0.924 | 0.77 | 0.861 | 0.77 | 0.72 | 0.474 | 0.682 | 0.546 | 0.527 | 0.553 | 0.508 | 0.467 | 0.519 | 0.862 | 0.791 | 0.839 | 0.734 | 0.612 |
| NCI-H1734 | 0.737 | 0.618 | 0.67 | 0.639 | 0.648 | 0.694 | 0.594 | 0.761 | 0.786 | 0.523 | 0.332 | 0.338 | 0.255 | 0.968 | 0.775 | 0.863 | 0.898 | 0.451 |
| SK-MES-1 | 1.01 | 0.902 | 0.938 | 0.926 | 0.875 | 0.488 | 0.488 | 0.493 | 0.431 | 0.319 | 0.642 | 0.686 | 0.453 | 0.937 | 0.843 | 0.981 | 1.01 | 0.679 |
| COR-L 105 | 0.851 | 0.839 | 0.729 | 0.731 | 0.248 | 0.442 | 0.424 | 0.41 | 0.452 | 0.311 | 0.457 | 0.259 | 0.211 | 0.941 | 0.987 | 0.951 | 0.793 | 0.527 |
| EMC-BAC-2 | 0.764 | 0.778 | 0.432 | 0.765 | 0.708 | 0.918 | 0.811 | 0.864 | 0.779 | 0.479 | 0.402 | 0.464 | 0.319 | 1.12 | 0.982 | 0.954 | 1.03 | 0.56 |
| NCI-H1915 | 0.842 | 0.889 | 0.933 | 0.857 | 0.892 | 0.308 | 0.287 | 0.305 | 0.314 | 0.273 | 0.332 | 0.343 | 0.369 | 1.09 | 1.04 | 1.08 | 1.09 | 0.707 |
| NCI-H358 | 0.659 | 0.636 | 0.137 | 0.397 | 0.321 | 0.142 | 0.135 | 0.119 | 0.143 | 0.115 | 0.285 | 0.226 | 0.0829 | 0.815 | 0.565 | 0.759 | 0.675 | 0.179 |
| CAL-12T | 0.778 | 0.846 | 0.799 | 0.707 | 0.364 | 0.311 | 0.381 | 0.373 | 0.41 | 0.335 | 0.365 | 0.472 | 0.117 | 1.11 | 1.06 | 1.18 | 1.16 | 1.16 |
